Results as given in patent US20220127298A1, “THERMOSPOROTHRIX HAZAKENSIS-DERIVED ANTIBACTERIALLY ACTIVE SUBSTANCE” (KENNAN EISEI KOGYO CO., LTD., priority 2019, published 2022).

Experiments:
Assay type in all cases: cell-based
[1] = tested on: Geobacillus stearothermophilus ATCC 7953; experiment: Antibacterial spectrum test, paper disk assay; details: 50 μL of 1000 γ solution in methanol, LB agar, 60° C., 18 hours
Protocol: (§1) The antibacterial activity of HK-1 was assayed using a paper disk against the following bacterial bodies. A piece of ice was taken out of a glycerol stock of G. stearothermophilus stored at -80° C. and […] inoculated on the LB agar culture medium (see Example 1) with a toothpick. This was incubated at 60° C. for 18 hours. After the incubation, 1⁄2 platinum loop of the culture was harvested and suspended in 500 μL of sterile water. The bacterial suspension was diluted 10-fold with sterile water. Onto a LB agar culture medium, 100 μL of the diluted suspension was dropped and spread until it was dried up. A piece of paper disk was placed on a filter paper, onto which 50 μL of a HK-1 solution adjusted to 1000 γ with methanol was dropped and dried. Then the disk was placed on the agar culture medium coated with the bacterial body. After incubation at 60° C. for 18 hours, the diameter of the inhibition ring was measured.

[2] = tested on: Geobacillus stearothermophilus ATCC 7953; experiment: Heat resistance test A, antibacterial activity as index; details: 1000 γ solution, pH adjusted to 9, 98° C. for 5 min; FIG. 4-1
Protocol: (§2) Examples of a typical test for measuring the stability of a compound include pH stability test, as well as heat resistance test, and storage test. This information is also regarded as important in evaluating the compound as described above. Using the sample of HK-1 prepared in the above “3. Antibacterial activity test in changing pH”, experiments were carried out to examine whether the compound is stable or not using G. stearothermophilus and B. subtilis guided by the antibacterial activity as the index.
(§3) Three hundred (300) μL of the 1000 γ HK-1 solution (pH 9, and pH not adjusted) prepared in the above “3. Antibacterial activity test in changing pH” was dispensed into a 1 mL microtube. The opening of the tube was closed hermetically with parafilm and heated in the bath at 98° C. for 5 min. An assay was performed using the culture medium for assaying antibacterial activity prepared in “3. Antibacterial activity test in changing pH” above.

[3] = tested on: Bacillus subtilis NBRC 3134^T; experiment: as above; details: 1000 γ solution, pH adjusted to 9, 98° C. for 5 min; FIG. 4-1
Protocol: as §2, §3

[4] = tested on: Bacillus subtilis NBRC 3134^T; experiment: Antibacterial activity test in changing pH, paper disk assay; details: 1000 γ in methanol, 50 μL on paper disk, 37° C., 18 hours
Protocol: Into a 50-mL Falcon tube, 20 mg of HK-1 was weighed out using an electric balance, and therein 20 mL of methanol (1000 γ) was added followed by gentle stirring. Each 3.3 mL was aliquoted to totally two 15-mL Falcon tubes. To one of them 20 μL of 1 N sodium hydroxide was added followed by gentle stirring. The pH was tested with a pH test paper. Ten (10) μL of each sample was subjected to HPLC. The HPLC analysis conditions are as follows. The stability of a compound is regarded as one of the important information for evaluating a substance. This is because, even if the external environment changes, insofar as the compound itself is stable, it can be applied in various situations, and the information leads to acquisition of biological knowledges. Therefore, the stability of the activity was examined by measuring antibacterial activities with respect to G. stearothermophilus, and B. subtilis using the solution prepared in the above “1. Antibacterial spectrum test”. (1) In a 200-mL Erlenmeyer flask, 100 mL of a NB culture medium was prepared and sterilized in an autoclave (121° C., 20 min). (2) After cooling to 50° C. or lower, 100 μL of the B. subtilis spore suspension was added. […] The culture medium was taken out from the incubator, and the diameter of the inhibition ring was measured with calipers (Kanon hardened stainless 150 mm).

[5] = tested on: Escherichia coli NBRC 102203^T; experiment: Antibacterial spectrum test, paper disk assay; details: 50 μL of 1000 γ solution in methanol, LB agar, 37° C., 18 hours
Protocol: as §1, with “measured. Assays were performed in the same manner as in 1 above, except that the incubation temperature was changed to 37° C.” for “measured.”

[6] = tested on: Bacillus subtilis NBRC 3134^T; experiment: Antibacterial spectrum test, paper disk assay; details: 50 μL of 1000 γ solution in methanol, LB agar, 37° C., 18 hours
Protocol: as §1, with “measured. Assays were performed in the same manner as in 1 above, except that the incubation temperature was changed to 37° C.” for “measured.”

- antibacterial effect after heating at high temperature [2]: the antibacterial effect was not lost
- antibacterial effect after heating at high temperature [3]: the antibacterial effect was not lost
SMILES: COc1cc(OOc2cc(OC)c3c(c2-c2c(O)c(Cl)c(C)c4c2C(O)c2c(Cl)c(O)cc(O)c2C4=O)C(OC2OC(C)C(O)C2O)c2c(Cl)c(OC)c(Cl)c(C)c2C3=O)c(-c2c(O)c(Cl)c(C)c3c2C(O)c2c(Cl)c(O)cc(O)c2C3=O)c2c1C(=O)c1c(C)c(Cl)c(OC)c(Cl)c1C2OC1OC(C)C(O)C1O (stereo not shown) [HK-1]
- inhibition ring diameter [1]: 34.0 mm
- inhibition ring diameter ([4]; solution with pH adjusted to 9): 20.2 mm
- inhibition ring diameter ([4]; solution with pH not adjusted): 18.5 mm
- inhibition ring diameter [5]: 14.0 mm
- inhibition ring diameter [6]: 32.0 mm
